“And” between values parts separate entries of the source, which are not always exact repeats. Identical values can stand only once. Like-named read-outs stand apart in the source and are kept apart here.
Columns and labels:
SCRM-FAMA heterodimer = target: T1, SCRM-FAMA heterodimer (Arabidopsis thaliana, UniProt Q56YJ8); assay: Y2H growth and quantitative α-galactosidase assay; type: cell-based; conditions: for a-galactosidase: yeast FAMA∆N+SCRM, individual replicates, listed as AYSJ929
T1 construct: truncated SPCH and FAMA proteins lacking their N-terminal domain were used in yeast; expressed in transfected cells; host or cells: yeast strain AH109
T1 sequence (Q56YJ8 190-414, one chain of several): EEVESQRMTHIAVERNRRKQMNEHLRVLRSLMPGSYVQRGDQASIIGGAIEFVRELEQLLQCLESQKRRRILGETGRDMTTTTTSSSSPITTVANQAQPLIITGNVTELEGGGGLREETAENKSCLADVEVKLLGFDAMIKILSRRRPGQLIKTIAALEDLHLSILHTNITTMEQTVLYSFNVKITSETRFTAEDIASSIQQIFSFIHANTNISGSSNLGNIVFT
Experimental: Y2H assays were performed using the Matchmaker^TM Two-Hybrid System (Clontech). Bait (pGBKT7) and prey (pGADT7) constructs were co-transformed into the yeast strain AH109 using Frozen-EZ Yeast Transformation II Kit (Zymo Research, T2001). The resulting transformants were spotted on SD ( − Leu, −Trp) and SD ( − Trp, −Leu, −His) selection media containing different concentrations of 3-amino-1,2,4-triazole (Sigma, A8056) as previously reported. Quantitative α-galactosidase assay was also performed according to manufactural instruction (Clontech). Briefly, the transformants were incubated in 2 ml SD medium with 0, 10, 50 100 μM Stomidazolone (3) or SIM3* (7) with rotary shake (220 rpm) at 30 °C overnight. The cultured media containing yeast were transferred to microtubes and centrifuged to obtain the supernatant. The colorimetric assay was performed by incubating 8 μL of supernatant with 24 μL Assay Buffer that contains 0.5 M sodium acetate (pH 4.5) (Nakalai tesque, 31137-25): 100 mM p-nitrophenyl α-D-Galactopyranoside Solution (Sigma N0877) = 2:1 (v/v) at 30 °C for 60 min, then terminated by adding 960 μL 1X Stop Solution (0.1 M sodium carbonate, Fujifilm Wako 195-01582). After OD410 was recorded, α-galactosidase units were calculated according to the protocol (Clontech, P3024-1).

MUTE = target: T2, MUTE (Arabidopsis thaliana, UniProt Q9M8K6); assay: BLI direct binding; design: species or system A. thaliana
T2 construct: MUTE (1-202); made in house; host or cells: E. coli BL21
T2 sequence (Q9M8K6 whole entry): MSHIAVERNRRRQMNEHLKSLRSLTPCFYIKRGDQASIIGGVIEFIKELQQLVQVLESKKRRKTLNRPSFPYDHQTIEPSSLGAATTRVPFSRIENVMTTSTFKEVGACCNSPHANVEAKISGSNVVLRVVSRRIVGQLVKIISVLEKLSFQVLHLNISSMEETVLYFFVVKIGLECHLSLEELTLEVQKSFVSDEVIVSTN

Compound: O=C1C(c2ccccc2)=NC(NS(=O)(=O)c2ccccc2)(c2ccccc2)N1S(=O)(=O)c1ccccc1 (stereo not shown) [Stomidazolone]
- effect in quantitative α-galactosidase assay (SCRM-FAMA heterodimer; 0, 10, 50, 100 μM): inhibits these stomatal bHLH heterodimers in a dose-dependent manner
- effect on association in Y2H growth assay (SCRM-FAMA heterodimer; 50 μM, 1 mM 3-AT, N-terminally truncated FAMA): diminishes
- a-galactosidase (SCRM-FAMA heterodimer; 10 µM): 9.32 milliunits /(ml x cell) and 7.38 milliunits /(ml x cell) and 8.74 milliunits /(ml x cell)
- a-galactosidase (SCRM-FAMA heterodimer; 50 µM): 7.60 milliunits /(ml x cell) and 6.41 milliunits /(ml x cell) and 6.17 milliunits /(ml x cell)
- a-galactosidase (SCRM-FAMA heterodimer; 100 µM): 5.72 milliunits /(ml x cell) and 5.36 milliunits /(ml x cell) and 4.71 milliunits /(ml x cell)
- Kd (MUTE; BLI steady state, MUTE, read-out: KD (SS)): 0.0089 ± 0.0012 mM
- kdis (MUTE; MUTE loaded on Anti-GST sensor, fit per sensor, Stomid Conc. 200-3.12, rep-1, rep-2): 0.0392 s⁻¹ and 0.0391 s⁻¹
- Kd (MUTE; MUTE loaded on Anti-GST sensor, fit per sensor, Stomid Conc. (mM) 200-3.12, rep-1, rep-2, read-out: KD): 0.00896 mM and 0.00929 mM and 0.00909 mM and 0.0092 mM and 0.00905 mM and 0.00911 mM and 0.0091 mM and 0.00897 mM and 0.00907 mM and 0.00902 mM and 0.00906 mM
- RMax (MUTE; MUTE, Conc. 3.12, rep-1, rep-2): 0.125 and 0.165
- Req/Rmax(%) (MUTE; MUTE, Conc. 3.12, rep-1, rep-2): 100%
- Response (MUTE; MUTE, Conc. 3.12, rep-1, rep-2): 0.1223 and 0.1634
- RMax (MUTE; MUTE, Conc. 6.25, rep-1, rep-2): 0.275 and 0.215
- Req/Rmax(%) (MUTE; MUTE, Conc. 6.25, rep-1, rep-2): 97% and 100%
- Response (MUTE; MUTE, Conc. 6.25, rep-1, rep-2): 0.2732 and 0.2105
- RMax (MUTE; MUTE, Conc. 12.5, rep-1, rep-2): 0.425 and 0.395
- Response (MUTE; MUTE, Conc. 12.5, rep-1, rep-2): 0.4108 and 0.3912
- RMax (MUTE; MUTE, Conc. 25, rep-1, rep-2): 0.525 and 0.47
- Response (MUTE; MUTE, Conc. 25, rep-1, rep-2): 0.5211 and 0.4645
- RMax (MUTE; MUTE, Conc. 50, rep-1, rep-2): 0.55 and 0.585
- Req/Rmax(%) (MUTE; MUTE, Conc. 50, rep-1, rep-2): 89%
- Response (MUTE; MUTE, Conc. 50, rep-1, rep-2): 0.5313 and 0.5832
- RMax (MUTE; MUTE, Conc. 100, rep-1, rep-2): 0.605 and 0.635
- Response (MUTE; MUTE, Conc. 100, rep-1, rep-2): 0.5932 and 0.6302
- RMax (MUTE; MUTE, Conc. 200, rep-1, rep-2): 0.615 and 0.645
- Req/Rmax(%) (MUTE; MUTE, Conc. 200, rep-1, rep-2): 98%
- Response (MUTE; MUTE, Conc. 200, rep-1, rep-2): 0.606 and 0.634
- koff (MUTE; read-out: kdis(1/s), MUTE loaded on Anti-GST sensor, fit per sensor, Stomid Conc. 200-3.12, rep-1, rep-2): 0.0393 s⁻¹
- kon (MUTE; read-out: kon(1/Ms), MUTE loaded on Anti-GST sensor, fit per sensor, Stomid Conc. 200-3.12, rep-1, rep-2): 4380 M⁻¹ s⁻¹
